Measurements as given in patent US20090197960A1, “Method of Inhibiting Polyneuropathic Pain with 3-(2-Dimethylaminomethylcyclohexyl) Phenol” (Gruenenthal GmbH, priority 2008, published 2009).

How the values were obtained:
[1] = system: pain in diabetic polyneuropathy; settings: number of patients treated for one patient to experience more than 50% pain relief; cited from earlier work
[2] = system: pain in post-herpetic neuralgia; settings: number of patients treated for one patient to experience more than 50% pain relief; cited from earlier work
[3] = system: cold allodynia in mononeuropathic pain; assay: Mononeuropathic pain model according to Bennett (ischial nerve ligatures), cold allodynia on cold metal plate at 4° C.; type: in vivo, Sprague Dawley rats
Protocol: (§1) Male Sprague Dawley rats (140-180 g, Janvier, France) were kept under standard conditions (06.00-18.00 light, 18.00-06.00 darkness; 20-24° C. room temperature, 35-70% relative humidity; tap water and standard feed (ad libitum)) in groups of five animals in Macrolon type 4 cages.
The investigation was carried out according to Bennett et al., Pain, 1988, 33, 87-107.
Under pentobarbital anaesthesia (Narcocen, 60 mg/kg i.p., Merial GmbH, Germany), four loose ligatures were placed unilaterally on the right ischial nerve. On the paw innervated by the damaged nerve, the animals developed hypersensitivity which, after one week's convalescence, was quantified over a period of approx. four weeks using a cold metal plate at 4° C. (cold allodynia). The animals were observed on this plate for a period of 2 min. and the number of withdrawal responses by the damaged paw was measured. The action of the substance, relative to the preliminary value before administration of the substance, was determined over a period of one hour at four different times (15, 30, 45, 60 min after administration). The inhibition of cold allodynia at the individual measurement times was stated in percent relative to the individual pretest (% MPE), with the pretest corresponding to 0% MPE and complete inhibition (0 withdrawal responses per 2 min) to 100% MPE. Group size was n=10. The significance of a substance's action was determined on the basis of the percentage inhibition values relative to the vehicle group by bifactorial analysis of variance and post hoc Bonferroni analysis, the ED50 value by linear regression analysis for the individual measurement points or the area under the curve (AUC).

[4] = system: cold allodynia in polyneuropathic pain; assay: Polyneuropathic pain model according to Authier (vincristine-induced), cold allodynia with acetone drop; type: in vivo, Sprague Dawley rats
Protocol: as §1
The investigation was carried out according to Authier et al., Neuroreport, 1999, 10, 965-8.
Three days after the final vincristine treatment, the animals had developed hypersensitivity to cold (cold allodynia) which continued over a period of three weeks. For testing, the animals were placed under a plastic cover on a grating and, after habituation, cold allodynia was quantified. To this end, a drop of acetone (10 μl) was carefully applied onto a hind paw with a syringe and a thin plastic tube. The number of induced withdrawal responses (shaking, stamping or licking) was recorded over a period of 30 sec. The cumulative number from 5 stimulations (at 5 min intervals from one another) was determined before and at different times after administration of the substance or the vehicle. The percentage inhibition value (% MPE) was determined in comparison with the particular pretest (0% MPE) and with the weekly vehicle control group (100% MPE=0 withdrawal responses). The size of the group was usually n=10. The significance of a substance's action was determined on the basis of the percentage inhibition value relative to the vehicle group by means of bifactorial analysis of variance and post hoc Bonferroni analysis, the ED50 value by linear regression analysis for the individual measurement points.

SMILES: Cc1cccc(C)c1OCC(C)N (stereo not shown) [Mexiletine]
- NNT (Numbers Needed to Treat) [1]: 10.0

SMILES: COc1ccc2c(c1)[C@]13CCCC[C@@H]1[C@H](C2)N(C)CC3 [Oextromethorphan]
- NNT (Numbers Needed to Treat) [1]: 1.9

SMILES: NC(=O)N1c2ccccc2C=Cc2ccccc21 [Carbamazepine]
- NNT (Numbers Needed to Treat) [1]: 3.3

SMILES: COc1cc(CNC(=O)CCCC/C=C/C(C)C)ccc1O [Capsaicin]
- NNT (Numbers Needed to Treat) [2]: 5.3
- NNT (Numbers Needed to Treat) [1]: 5.9

SMILES: N[C@@H](Cc1ccc(O)c(O)c1)C(=O)O [L-Dopa]
- NNT (Numbers Needed to Treat) [1]: 3.4

SMILES: COc1ccc2c3c1O[C@H]1C(=O)CC[C@@]4(O)[C@@H](C2)N(C)CC[C@]314 [Oxycodone]
- NNT (Numbers Needed to Treat) [2]: 2.5

SMILES: NCC1(CC(=O)O)CCCCC1 [Gabapentin]
- NNT (Numbers Needed to Treat) [2]: 3.2
- NNT (Numbers Needed to Treat) [1]: 3.7

SMILES: CN(C)CCCN1c2ccccc2CCc2ccccc21 [Imipramine]
- NNT (Numbers Needed to Treat) [1]: 1.4

SMILES: COc1cccc(C2(O)CCCCC2CN(C)C)c1 (stereo not shown) [Tramadol]
- NNT (Numbers Needed to Treat) [1]: 3.4

SMILES: CN(C)C[C@@H]1CCCC[C@H]1c1cccc(O)c1 [(1R,2R)-3-(2-Dimethylaminomethylcyclohexyl)phenol]
- inhibition of cold allodynia (in words) ([3]; 10-31.6 mg/kg i.p.): dose-dependent inhibition
- maximum effect ([3]; 15 min after administration of 31.6 mg/kg): 80 % MPE
- ED50 ([3]; Rattus norvegicus, ip, 0.5 h, 30 min after administration, i.p., mononeuropathic pain model, read-out: ED50 value (95% VB)): 17.6 mg/kg
- inhibition of cold allodynia, Mean ([3]; dose 10 (mg/kg i.p.), 15 min after administration): 22.16 % MPE
- inhibition of cold allodynia, Mean ([3]; dose 10 (mg/kg i.p.), 30 min after administration): 20.93 % MPE
- inhibition of cold allodynia, Mean ([3]; dose 10 (mg/kg i.p.), 45 min after administration): 8.60 % MPE
- inhibition of cold allodynia, Mean ([3]; dose 10 (mg/kg i.p.), 60 min after administration): 9.23 % MPE
- inhibition of cold allodynia, Mean ([3]; dose 21.5 (mg/kg i.p.), 15 min after administration): 56.62 % MPE
- inhibition of cold allodynia, Mean ([3]; dose 21.5 (mg/kg i.p.), 30 min after administration): 61.06 % MPE
- inhibition of cold allodynia, Mean ([3]; dose 21.5 (mg/kg i.p.), 45 min after administration): 34.96 % MPE
- inhibition of cold allodynia, Mean ([3]; dose 21.5 (mg/kg i.p.), 60 min after administration): 16.33 % MPE
- inhibition of cold allodynia, Mean ([3]; dose 31.6 (mg/kg i.p.), 15 min after administration): 80.03 % MPE
- inhibition of cold allodynia, Mean ([3]; dose 31.6 (mg/kg i.p.), 30 min after administration): 79.15 % MPE
- inhibition of cold allodynia, Mean ([3]; dose 31.6 (mg/kg i.p.), 45 min after administration): 61.68 % MPE
- inhibition of cold allodynia, Mean ([3]; dose 31.6 (mg/kg i.p.), 60 min after administration): 21.18 % MPE
- minimally active dose at which a statistically significant inhibition was obtained ([3]; i.p., mononeuropathic pain model): 21.5 mg/kg
- dose of significant inhibition, mononeuropathic versus polyneuropathic pain model ([4]; 21.5 mg/kg i.p. versus 4.64 mg/kg i.p.): more than four times higher
- inhibition of cold allodynia (in words) ([4]; 10-21.5 mg/kg i.p.): dose-dependent inhibition
- maximum effect ([4]; 30 min after administration of 21.5 mg/kg): 74 % MPE
- ED50 ([4]; Rattus norvegicus, ip, 0.5 h, 30 min after administration, i.p., polyneuropathic pain model, read-out: ED50 value (95% VB)): 5.7 mg/kg
- efficacy in polyneuropathic pain relative to mononeuropathic pain in an animal model ([4]; animal model): approx. four times greater
- inhibition of cold allodynia, Mean ([4]; dose 2.15 (mg/kg i.p.), 30 min): 48.4 % MPE
- inhibition of cold allodynia, Mean ([4]; dose 2.15 (mg/kg i.p.), 180 min): −37.7 % MPE
- inhibition of cold allodynia, Mean ([4]; dose 4.64 (mg/kg i.p.), 30 min): 67.9 % MPE
- inhibition of cold allodynia, Mean ([4]; dose 4.64 (mg/kg i.p.), 180 min): 22.6 % MPE
- inhibition of cold allodynia, Mean ([4]; dose 10 (first dose line of the table, i.p.), 30 min): −28.9 % MPE
- inhibition of cold allodynia, Mean ([4]; dose 10 (first dose line of the table, i.p.), 180 min): −22.2 % MPE
- inhibition of cold allodynia, Mean ([4]; dose 10 (fourth dose line of the table, mg/kg i.p.), 30 min): 58.7 % MPE
- inhibition of cold allodynia, Mean ([4]; dose 10 (fourth dose line of the table, mg/kg i.p.), 180 min): 20.8 % MPE
- inhibition of cold allodynia, Mean ([4]; dose 21.5 (mg/kg i.p.), 30 min): 74.2 % MPE
- inhibition of cold allodynia, Mean ([4]; dose 21.5 (mg/kg i.p.), 180 min): 15.2 % MPE
- minimally active dose at which a statistically significant inhibition was obtained ([4]; i.p., polyneuropathic pain model): 4.64 mg/kg
